Results taken from ChEMBL document CHEMBL1144283, “Truncated azinomycin analogues intercalate into DNA” (Bioorg Med Chem Lett, 2005).

What was measured:
[1] = Inhibitory concentration measured against the prostate cancer cell line DU145; IA:Inactive; assay type: functional, cell-based, Homo sapiens; details: cancer cell lines
[2] = Inhibitory concentration measured against the prostate cancer cell line DU145; assay type: functional, cell-based, Homo sapiens; details: cancer cell lines

## COc1cc(C(=O)NCCN2CCCC(O)C2)c2cccc(C)c2c1 (stereo not drawn)
[1]
  IC50: Not Active

## COc1cc(C(=O)O[C@H](C(N)=O)[C@]2(C)CO2)c2cccc(C)c2c1
[2]
  IC50: 50 nM

## COc1cc(C(=O)NCCN2CCCC(Cl)C2)c2cccc(C)c2c1 (stereo not drawn)
[1]
  IC50: Not Active
